Test results reported in patent publication US20260098017A1, “NOVEL AROMATIC RING DERIVATIVE CONTAINING AMIDE SUBSTITUTION AND USE THEREOF” (TIANJIN PHARMACEUTICAL BIOTECHNOLOGY CO., LTD., priority 2022, published 2026).
Read-outs that look alike come from different tables or passages of the source. Marks after values point to notes of the source that are not given here.

Legend:
[1] = system: SD rats; assay: Four-week repeat-dose toxicity study in rats; type: in vivo; conditions: rat, 28 days, po bid, 50 mg/kg
Experimental: Each group contained 10 animals, with an equal number of males and females.
The treatment lasted for four consecutive weeks (28 days).
• Daily clinical observation and body weight measurement; • After the last administration, rats were fasted for more than 16 h, anesthetized on the next day, and blood was collected from abdominal aorta. Tests such as hematology (EDTA-2K anticoagulation), blood biochemistry (serum), coagulation function (separated plasma with sodium citrate anticoagulation) and the like were respectively carried out; • After euthanization of the animals, the tissue organs were dissected and observed in general, and organ weights and coefficients (heart, liver, spleen, kidney, thymus) were determined; • The skin and lung tissues of the administration site were taken for HE staining to observe the changes in epidermal thickness, dermal inflammatory cells and pulmonary lesions.

[2] = system: imiquimod-induced mouse psoriasis-like model; assay: Imiquimod-induced mouse psoriasis-like model (PASI score); type: in vivo; conditions: bid
[3] = molecular target: JAK3 JH1 kinase (Homo sapiens, UniProt P52333); assay: JAK3 JH1 enzyme assay in vitro (TR-FRET); type: biochemical
JAK3 JH1 kinase, sequence (P52333 822-1111 limits assumed): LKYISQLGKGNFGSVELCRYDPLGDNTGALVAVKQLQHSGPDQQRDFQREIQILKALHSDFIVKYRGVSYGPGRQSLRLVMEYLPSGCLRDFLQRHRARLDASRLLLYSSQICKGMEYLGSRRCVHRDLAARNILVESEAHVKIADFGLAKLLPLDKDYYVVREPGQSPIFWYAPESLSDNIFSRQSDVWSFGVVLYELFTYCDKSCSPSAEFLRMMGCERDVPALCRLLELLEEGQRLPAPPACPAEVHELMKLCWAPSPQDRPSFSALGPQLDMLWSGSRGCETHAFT

[4] = molecular target: Ba/F3 cell line expressing TYK2 (Homo sapiens, UniProt P29597, cells depend on it, form not given); assay: In vitro cellular inhibition assay (Ba/F3 cell proliferation, CellTiter-Glo); type: cell-based; conditions: read-out: IC50 (the source's name)
Outline: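 Ba/F3 cells dependent on TYK2 were exposed to serially diluted compound, then viability was read by CellTiter-Glo luminescence. Inhibition (%) was calculated from RLU relative to max and min controls, and IC50 was obtained by curve fitting.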

[5] = molecular target: JAK1 JH2 pseudokinase (Homo sapiens, UniProt P23458); assay: JAK1 JH2 enzyme binding assay in vitro (TR-FRET); conditions: read-out: JAK 1 JH2 IC50
JAK1 JH2 pseudokinase, sequence (P23458 583-855 limits assumed): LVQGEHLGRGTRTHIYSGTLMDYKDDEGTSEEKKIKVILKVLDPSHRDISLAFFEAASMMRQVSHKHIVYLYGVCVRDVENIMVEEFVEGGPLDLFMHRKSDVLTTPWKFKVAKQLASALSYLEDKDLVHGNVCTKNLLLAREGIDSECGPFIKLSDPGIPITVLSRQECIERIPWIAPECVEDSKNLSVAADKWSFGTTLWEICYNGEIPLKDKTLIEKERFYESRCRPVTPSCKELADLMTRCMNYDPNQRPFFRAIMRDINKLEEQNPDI
Experimental: Instrumentation: Envision microplate reader (PerkinElmer), Echo (LABCYTE)
Method: in this experiment, the inhibitory effects of compounds on JAK1 JH2 pseudokinase was tested using time-resolved fluorescence resonance energy transfer (TR-FRET) method.
Procedure: compounds were prepared into 10 mM stock solutions using DMSO, which were further diluted into compound dilutions with different concentration gradients in DMSO, and the compound dilutions with 200× final concentration were transferred to a 384-well assay plate using an Echo instrument. The preparation of the following 1× assay working solution: HEPES pH7.5 at a final concentration of 20 mM, MgCl2 at a final concentration of 10 mM, Brij-35 at a final concentration of 0.015%, DTT at a final concentration of 2 mM, BSA at a final concentration of 50 ug/mL. JAK1 JH2 pseudokinase with 3× final concentration, Tb antibody and Tracer were prepared using their respective 1× working solution. 5 uL of JAK1 JH2 pseudokinase was added to a 384-well assay plate, and centrifuged at 1000 rpm for 30 s. 5 uL of Tb antibody was added to the 384-well assay plate, and centrifuged at 1000 rpm for 30 s. 5 uL of Tracer was added to the 384-well assay plate, and centrifuged at 1000 rpm for 30 s. Incubation was performed at room temperature for 60 min, and then at 4° C. overnight. Finally, the 495 nm/520 nm fluorescence signal ratio was measured using the Envision microplate reader (PerkinElmer).
Data Analysis: XLfit, a software developed by IDBS and integrated into the Microsoft Excel environment, was used to process and analyze the test data. […] Thereafter, the concentration and corresponding inhibition rate data were imported into the XLfit software, and the Dose Response One Site 205 model within the software was employed to fit the inhibition rate-concentration curve by four-parameter method, and the IC50 value of the compound was calculated.

[6] = molecular target: JAK2 JH1 kinase (Homo sapiens, UniProt O60674); assay: JAK2 JH1 enzyme assay in vitro (TR-FRET); type: biochemical; conditions: read-out: JAK 2 JH1 IC50
JAK2 JH1 kinase, sequence (O60674 849-1124 limits assumed): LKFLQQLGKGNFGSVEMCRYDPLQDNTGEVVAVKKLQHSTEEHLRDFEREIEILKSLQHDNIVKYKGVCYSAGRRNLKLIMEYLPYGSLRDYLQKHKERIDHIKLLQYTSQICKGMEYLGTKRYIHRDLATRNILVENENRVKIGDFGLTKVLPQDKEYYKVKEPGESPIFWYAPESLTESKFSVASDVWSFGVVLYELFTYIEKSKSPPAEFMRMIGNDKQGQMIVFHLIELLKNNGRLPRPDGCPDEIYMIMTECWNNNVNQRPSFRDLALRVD

[7] = molecular target: T1, TYK2 JH1 kinase (Homo sapiens, UniProt P29597); assay: TYK2 JH1 enzyme assay in vitro (TR-FRET); type: biochemical
T1 sequence (P29597 897-1176 limits assumed): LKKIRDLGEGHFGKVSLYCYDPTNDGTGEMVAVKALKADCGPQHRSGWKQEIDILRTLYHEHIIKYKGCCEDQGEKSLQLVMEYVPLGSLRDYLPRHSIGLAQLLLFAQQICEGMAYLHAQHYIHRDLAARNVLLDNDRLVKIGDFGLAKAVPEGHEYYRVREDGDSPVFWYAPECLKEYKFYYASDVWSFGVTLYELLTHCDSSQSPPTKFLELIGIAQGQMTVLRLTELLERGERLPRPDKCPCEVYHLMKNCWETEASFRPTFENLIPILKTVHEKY

[8] = molecular target: JAK1 JH1 kinase (Homo sapiens, UniProt P23458); assay: JAK1 JH1 enzyme assay in vitro (TR-FRET); type: biochemical; conditions: read-out: JAK 1 JH1 IC50
JAK1 JH1 kinase, sequence (P23458 875-1153 limits assumed): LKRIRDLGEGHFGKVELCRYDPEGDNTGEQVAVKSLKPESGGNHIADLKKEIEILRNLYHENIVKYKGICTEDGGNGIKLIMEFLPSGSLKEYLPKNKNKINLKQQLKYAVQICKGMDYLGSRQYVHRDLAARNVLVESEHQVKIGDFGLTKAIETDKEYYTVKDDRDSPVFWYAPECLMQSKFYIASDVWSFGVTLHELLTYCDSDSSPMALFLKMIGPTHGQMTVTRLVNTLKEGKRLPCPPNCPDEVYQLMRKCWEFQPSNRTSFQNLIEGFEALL

[9] = molecular target: TYK2 JH2 pseudokinase (Homo sapiens, UniProt P29597); assay: TYK2 JH2 enzyme binding assay in vitro (TR-FRET)
TYK2 JH2 pseudokinase, sequence (P29597 589-875 limits assumed): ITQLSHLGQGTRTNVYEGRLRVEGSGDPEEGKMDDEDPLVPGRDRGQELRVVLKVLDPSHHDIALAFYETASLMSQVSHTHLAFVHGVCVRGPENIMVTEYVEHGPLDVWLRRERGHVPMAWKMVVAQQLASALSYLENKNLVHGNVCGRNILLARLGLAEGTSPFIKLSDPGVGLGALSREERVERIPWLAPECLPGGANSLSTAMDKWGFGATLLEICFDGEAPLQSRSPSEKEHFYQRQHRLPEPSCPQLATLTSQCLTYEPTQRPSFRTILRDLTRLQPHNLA
Experimental: Instrumentation: Envision microplate reader (PerkinElmer), ECHO550 (LABCYTE).
Method: the inhibitory effects of compounds on TYK2 JH2 pseudokinase was tested using time-resolved fluorescence resonance energy transfer (TR-FRET) method.
Procedure: compounds were prepared into 10 mM stock solutions using DMSO, which were further diluted into compound dilutions (200×) with different concentration gradients in DMSO, and the compound dilutions (200×) were transferred to a 384-well assay plate using an Echo instrument. […] TYK2 JH2 pseudokinase, Tb antibody, and Tracer working solutions were prepared using the dilution buffer, respectively. 5 uL of TYK2 JH2 pseudokinase working solution (final concentration 0.5 nM) was added to a 384-well assay plate, and centrifuged at 1000 rpm for 30 s. 5 uL of Tb antibody (final concentration 1×) was added to the 384-well assay plate, and centrifuged at 1000 rpm for 30 s. 5 uL of Tracer (final concentration 0.5 nM) was added to the 384-well assay plate, and centrifuged at 1000 rpm for 30 s. Incubation was performed at room temperature for 60 min, and then at 4° C. overnight.
Data Analysis: XLfit, a software developed by IDBS and integrated into the Microsoft Excel environment, was used to process and analyze the test data.

[10] = molecular target: T2, hERG channel (Homo sapiens, UniProt Q12809); assay: hERG potassium channel inhibition assay (manual patch clamp); type: cell-based; conditions: HEK-293 cell line stably expressing hERG channel, at the tested concentrations
T2 construct: expressed in transfected cells; host or cells: HEK-293
T2 sequence (Q12809 whole entry): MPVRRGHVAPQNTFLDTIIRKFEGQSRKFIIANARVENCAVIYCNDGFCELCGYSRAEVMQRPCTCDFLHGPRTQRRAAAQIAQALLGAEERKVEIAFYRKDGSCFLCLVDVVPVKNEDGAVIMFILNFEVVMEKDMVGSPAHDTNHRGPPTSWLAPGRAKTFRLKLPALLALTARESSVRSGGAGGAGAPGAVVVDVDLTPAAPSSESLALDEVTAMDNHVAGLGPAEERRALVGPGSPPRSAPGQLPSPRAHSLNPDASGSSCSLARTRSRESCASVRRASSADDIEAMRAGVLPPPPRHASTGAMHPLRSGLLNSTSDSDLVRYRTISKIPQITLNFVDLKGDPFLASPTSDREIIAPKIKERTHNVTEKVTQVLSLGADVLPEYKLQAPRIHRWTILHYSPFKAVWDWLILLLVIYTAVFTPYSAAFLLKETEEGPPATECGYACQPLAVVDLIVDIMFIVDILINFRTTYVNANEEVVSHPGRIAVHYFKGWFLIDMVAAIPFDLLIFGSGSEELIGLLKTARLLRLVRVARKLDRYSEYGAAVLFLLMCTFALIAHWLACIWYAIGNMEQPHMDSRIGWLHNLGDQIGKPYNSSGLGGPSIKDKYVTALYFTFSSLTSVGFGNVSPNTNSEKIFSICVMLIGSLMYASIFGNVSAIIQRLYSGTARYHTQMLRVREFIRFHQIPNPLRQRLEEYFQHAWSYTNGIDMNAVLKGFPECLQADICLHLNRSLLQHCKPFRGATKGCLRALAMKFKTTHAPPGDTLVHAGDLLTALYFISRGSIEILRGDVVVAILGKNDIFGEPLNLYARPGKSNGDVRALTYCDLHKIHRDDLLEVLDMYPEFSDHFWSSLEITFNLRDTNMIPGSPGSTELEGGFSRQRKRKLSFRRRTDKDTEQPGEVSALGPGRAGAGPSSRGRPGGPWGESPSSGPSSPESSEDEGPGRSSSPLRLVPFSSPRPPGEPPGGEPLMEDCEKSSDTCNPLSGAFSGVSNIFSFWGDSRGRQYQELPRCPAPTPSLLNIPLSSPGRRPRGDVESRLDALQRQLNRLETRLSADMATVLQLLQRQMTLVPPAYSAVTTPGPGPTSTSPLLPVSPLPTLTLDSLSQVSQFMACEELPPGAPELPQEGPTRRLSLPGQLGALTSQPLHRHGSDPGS
Experimental: Instrumentation: HEKA EPC 10 patch clamp amplifier.
Method: in this experiment, the blocking effect of the compounds on the current of the HEK-293 cell line stably expressing hERG channel was measured using the manual patch clamp technique, and the risk of the compounds on the inhibition of cardiac hERG potassium channel was assessed by fitting the concentration effect relationship.
Procedure: in the patch clamp operation, firstly, a capillary glass tube was pulled into a recording electrode using a microelectrode puller, then an electrode filled with intracellular solution was mounted into a microelectrode holder. A microelectrode manipulator was operated under an inverted microscope to immerse the electrode into an extracellular solution and the electrode resistance (Rpip) was recorded. Then, the electrode was slowly brought into contact with the cell surface, and a negative pressure was applied for suction to form a GΩ seal. At this point, a fast capacitance compensation was performed, and a negative pressure was continuously applied to suck and break the cell membrane to form a whole cell recording mode. Finally, a slow capacitance compensation was performed and experimental parameters including series resistance (Rs) and the like were recorded. No leakage compensation was performed. When the hERG current recorded by the whole cell was stable, the administration of drugs commenced, and each drug concentration acted for about 5 min (or until the current stabilization) before detecting the next concentration. A cover glass covered with cells was placed in a recording bath under an inverted microscope, the blank control extracellular solution and the working solution of the compounds to be tested sequentially flowed through the recording bath from low concentration to high concentration by using gravity perfusion to act on the cells, and solution exchange was performed using a peristaltic pump during recording. The current measured by each cell in the extracellular solution without the compound served as its own control group. Each concentration was independently assessed twice. All electrophysiological tests were performed at room temperature.
Data Analysis: firstly, the tail current (Peak tail currentcompound) after the action of each drug concentration and the blank control tail current (Peak tail currentcontrol) were normalized, then the inhibition rate
corresponding to each drug concentration was calculated, and the mean (Mean), standard deviation (SD) and standard error (SE) of the inhibition rate corresponding to each concentration were calculated, with data expressed as Mean±SE. The calculation of IC50 value and the fitting of dose-response curve for the compound were performed using GraphPad Prism software.

## [2H]C([2H])([2H])NC(=O)c1nnc(NC(=O)C2CC2)cc1Nc1cccc(-c2ncn(C)n2)c1OC([2H])([2H])[2H] [BMS-986165, reference compound]
[1]
  Hematology Gran: 1.6 ± 0.6 ×10^9/L
  Hematology Lymph: 3.6 ± 0.8 ×10^9/L
  Hematology Mono: 0.2 ± 0.0 ×10^9/L
[2]; day 7, 10 mg/kg, oral, day 1 to 6
  Percentage reduction in PASI score %: 30.1** %
[3]
  IC50: > 10000 nM

## [2H]C([2H])([2H])NC(=O)c1cnc(NC(=O)C2CC2)cc1Nc1cccc(C(=O)Nc2cncc(C)c2)c1OC [Example 91]
[4]
  GI50: 1 to 5 nM
[5]
  IC50: 3.29 nM
[6]
  IC50: > 10000 nM
[2]; oral gavage, 10 mg/kg, 25 mg/kg, 50 mg/kg, compared with the model group
  Improvement of psoriasis symptoms by oral administration: effectively improve psoriasis symptoms
[7]
  IC50: > 10000 nM
[3]; TR-FRET, read-out: JAK 3 JH1 IC50
  IC50: > 10000 nM
[8]
  IC50: > 10000 nM
[9]
  IC50: 0.312 nM
[10]
  hERG inhibition: no significant inhibition
